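Growth conditions: 96-well plates. Treatment: test compound, 48 hours, 5 concentrations. Analysis: linear interpolation between bracketing concentrations; unreached endpoints set to highest concentration. Abbreviation: GI50, concentration required for 50% inhibition of growth.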 Calls of active or inactive are those of the source. Rule as the data show it: active = GI50 up to about 1.1 µM and inactive = higher.
Key:
Assay in all cases: inhibition of tumour cell growth, NCI panel, 48 h
ACHN = tested on: ACHN
COLO 205 = tested on: COLO 205
HCC 2998 = tested on: HCC 2998
HCT-116 = tested on: HCT-116
HOP-62 = tested on: HOP-62
HOP-92 = tested on: HOP-92
NCI-H226 = tested on: NCI-H226
NCI-H460 = tested on: NCI-H460
OVCAR-4 = tested on: OVCAR-4
OVCAR-5 = tested on: OVCAR-5
PC-3 = tested on: PC-3
RXF 393 = tested on: RXF 393
SK-MEL-28 = tested on: SK-MEL-28
SN12C = tested on: SN12C
SW-620 = tested on: SW-620
U-251 = tested on: U-251
UACC-257 = tested on: UACC-257
UO-31 = tested on: UO-31
KM12 = tested on: KM12
CAKI-1 = tested on: CAKI-1

| Structure (SMILES) | GI50 (ACHN) | GI50 (COLO 205) | GI50 (HCC 2998) | GI50 (HCT-116) | GI50 (HOP-62) | GI50 (HOP-92) | GI50 (NCI-H226) | GI50 (NCI-H460) | GI50 (OVCAR-4) | GI50 (OVCAR-5) | GI50 (PC-3) | GI50 (RXF 393) | GI50 (SK-MEL-28) | GI50 (SN12C) | GI50 (SW-620) | GI50 (U-251) | GI50 (UACC-257) | GI50 (UO-31) | GI50 (KM12) | GI50 (CAKI-1) |
| --- | --- | --- | --- | --- | --- | --- | --- | --- | --- | --- | --- | --- | --- | --- | --- | --- | --- | --- | --- | --- |
| Cc1ccc2c(c1)SC1=Nc3sc4cc(C)ccc4[n+]3CN12 | 30.2 µM (inactive) | 2.7 µM (inactive) | 1.75 µM (inactive) | 10.5 µM (inactive) | 9.57 µM (inactive) | 2.97 µM (inactive) | 15.8 µM (inactive) | 11.7 µM (inactive) | 2.51 µM (inactive) | 18.3 µM (inactive) | 15.4 µM (inactive) | 78.5 µM (inactive) | 13 µM (inactive) | 7.16 µM (inactive) | 10.4 µM (inactive) | 2.58 µM (inactive) | 2.18 µM (inactive) | 35.6 µM (inactive) |  |  |
| Nc1nc(NNc2ccc(Cl)c(Cl)c2)cc(=O)[nH]1 | 35.6 µM (inactive) | 16.6 µM (inactive) | 19.8 µM (inactive) | 52.4 µM (inactive) | 70.8 µM (inactive) | 21.9 µM (inactive) | 78.9 µM (inactive) | 41.6 µM (inactive) | 52 µM (inactive) | 43.4 µM (inactive) | 34 µM (inactive) | 25.5 µM (inactive) | 52.1 µM (inactive) | 38.1 µM (inactive) | 22.8 µM (inactive) | 24.2 µM (inactive) | 43.2 µM (inactive) | 29.9 µM (inactive) | 30.8 µM (inactive) |  |
| COc1cc(O)c2c(=O)c(OC)c(-c3ccc(OC)c(O)c3)oc2c1 [AYANIN] | 33.1 µM (inactive) | 76.9 µM (inactive) | 28.2 µM (inactive) | 32.1 µM (inactive) | 31.5 µM (inactive) |  | > 100 µM (inactive) | 14 µM (inactive) | 22.1 µM (inactive) | 37.4 µM (inactive) | 30.8 µM (inactive) | 57.3 µM (inactive) | > 100 µM (inactive) | 61.9 µM (inactive) | > 100 µM (inactive) | > 100 µM (inactive) | 85.7 µM (inactive) | 28.9 µM (inactive) | 35.7 µM (inactive) | 6.71 µM (inactive) |
| CC12CCC(C(=O)OC1=O)C2(C)C (stereo not given) | > 100 µM (inactive) | > 100 µM (inactive) | > 100 µM (inactive) | > 100 µM (inactive) | > 100 µM (inactive) |  | > 100 µM (inactive) | > 100 µM (inactive) | > 100 µM (inactive) | > 100 µM (inactive) | > 100 µM (inactive) | > 100 µM (inactive) | > 100 µM (inactive) | > 100 µM (inactive) | > 100 µM (inactive) | > 100 µM (inactive) | 8.81 µM (inactive) | > 100 µM (inactive) | > 100 µM (inactive) |  |
| Fc1cccc2nc(-c3ccccc3)cc(OCc3ccccc3)c12 | > 100 µM (inactive) | > 100 µM (inactive) | > 100 µM (inactive) | > 100 µM (inactive) | > 100 µM (inactive) |  | > 100 µM (inactive) | > 100 µM (inactive) | > 100 µM (inactive) | > 100 µM (inactive) | > 100 µM (inactive) | 69.5 µM (inactive) | > 100 µM (inactive) | > 100 µM (inactive) | > 100 µM (inactive) | > 100 µM (inactive) | > 100 µM (inactive) | > 100 µM (inactive) | > 100 µM (inactive) |  |
| O=C([O-])Cc1ccccc1.[Na+] [SODIUM PHENYLACETATE] | 1180 µM (inactive) | 1340 µM (inactive) | 1210 µM (inactive) |  | 200 µM (inactive) | 359 µM (inactive) | 447 µM (inactive) | 342 µM (inactive) | 255 µM (inactive) | > 2000 µM (inactive) | > 2000 µM (inactive) | 582 µM (inactive) | 800 µM (inactive) | 23.9 µM (inactive) | 804 µM (inactive) | 729 µM (inactive) | > 2000 µM (inactive) | 929 µM (inactive) | 773 µM (inactive) |  |
| COc1ccc(-c2cc(-c3ccccc3)nc(N)n2)c(O)c1 | 21.1 µM (inactive) | > 100 µM (inactive) | > 100 µM (inactive) | > 100 µM (inactive) | > 49.5 µM (inactive) | > 43 µM (inactive) | > 100 µM (inactive) | 5.04 µM (inactive) | > 74.6 µM (inactive) | > 100 µM (inactive) | 6.68 µM (inactive) | > 100 µM (inactive) | > 83.4 µM (inactive) | > 25.3 µM (inactive) | 5.32 µM (inactive) | 12.6 µM (inactive) | > 100 µM (inactive) | 2.13 µM (inactive) | 4.67 µM (inactive) |  |
| COC(=O)C(Cc1c[nH]c2ccccc12)NC(=O)C(Cc1c[nH]cn1)NC(=O)C1CCC(=O)N1C(=O)OCc1ccccc1 (stereo not given) | > 100 µM (inactive) | > 100 µM (inactive) | > 100 µM (inactive) | > 100 µM (inactive) | > 100 µM (inactive) | > 100 µM (inactive) | > 100 µM (inactive) | > 100 µM (inactive) |  | > 100 µM (inactive) | > 100 µM (inactive) | > 100 µM (inactive) | > 100 µM (inactive) |  | > 100 µM (inactive) | > 100 µM (inactive) | > 100 µM (inactive) | > 100 µM (inactive) | > 100 µM (inactive) |  |
| CC1(C)OC[C@@H](O)[C@H](C#N)CO1 | > 100 µM (inactive) | > 100 µM (inactive) | > 100 µM (inactive) | > 100 µM (inactive) | > 100 µM (inactive) |  | > 100 µM (inactive) | > 100 µM (inactive) | > 100 µM (inactive) | > 100 µM (inactive) | > 100 µM (inactive) | > 100 µM (inactive) | > 100 µM (inactive) | > 100 µM (inactive) | > 100 µM (inactive) | > 100 µM (inactive) | > 100 µM (inactive) | > 100 µM (inactive) | > 100 µM (inactive) | > 100 µM (inactive) |
| Cc1sc2c(c1C)C(=O)c1cccn1-2 | > 100 µM (inactive) | > 100 µM (inactive) | > 100 µM (inactive) | 61.2 µM (inactive) | > 100 µM (inactive) |  | > 100 µM (inactive) | > 100 µM (inactive) | > 100 µM (inactive) | > 100 µM (inactive) | 65.3 µM (inactive) | 59 µM (inactive) | > 100 µM (inactive) | 78.2 µM (inactive) | 72.6 µM (inactive) | 61.7 µM (inactive) | > 100 µM (inactive) | 54.7 µM (inactive) | > 100 µM (inactive) | 85.7 µM (inactive) |
| O=C1CCc2cc3c(cc21)CC1(Cc2cc4c(cc2C1)CCCC4)C3 | > 100 µM (inactive) | 33 µM (inactive) | 69.8 µM (inactive) | 37.2 µM (inactive) | 83.2 µM (inactive) | 0.0489 µM (active) |  | 41.4 µM (inactive) | 29 µM (inactive) | > 100 µM (inactive) | > 100 µM (inactive) | 16 µM (inactive) | > 100 µM (inactive) | > 100 µM (inactive) | 29.1 µM (inactive) | 45.9 µM (inactive) | 35.6 µM (inactive) | > 100 µM (inactive) | 51.2 µM (inactive) |  |
| CC(=O)NNC(=S)N/C=C1/C(=O)Oc2ccccc2C1=O | > 100 µM (inactive) | > 100 µM (inactive) | > 100 µM (inactive) | > 100 µM (inactive) | > 100 µM (inactive) |  | > 100 µM (inactive) | > 100 µM (inactive) | > 100 µM (inactive) | > 100 µM (inactive) | > 100 µM (inactive) | 0.0703 µM (active) | > 100 µM (inactive) | > 100 µM (inactive) | > 100 µM (inactive) | > 100 µM (inactive) | > 100 µM (inactive) | > 100 µM (inactive) | > 100 µM (inactive) | > 100 µM (inactive) |
| N#CC12CC(C=O)=C(N)C1(C#N)CC(C=O)=C2N (stereo not given) | > 100 µM (inactive) | > 100 µM (inactive) | 26.5 µM (inactive) | 47.3 µM (inactive) | 65.9 µM (inactive) | 32.5 µM (inactive) | > 100 µM (inactive) |  |  | > 100 µM (inactive) | 72.3 µM (inactive) | 41.9 µM (inactive) | 38.5 µM (inactive) | 74.6 µM (inactive) | 49.7 µM (inactive) | 55.3 µM (inactive) | 32.3 µM (inactive) | 70.1 µM (inactive) | 88.9 µM (inactive) | > 100 µM (inactive) |
| CC1(C)N=C(N)N=C(N)N1c1cccc(OCc2cccc([N+](=O)[O-])c2)c1 | > 100 µM (inactive) | 9.93 µM (inactive) |  | 5.41 µM (inactive) | > 76 µM (inactive) | > 100 µM (inactive) | > 100 µM (inactive) | 1.6 µM (inactive) | 39.6 µM (inactive) | > 30.6 µM (inactive) | 14.4 µM (inactive) | > 100 µM (inactive) | > 55.2 µM (inactive) | 9.98 µM (inactive) | > 85.9 µM (inactive) | 2.88 µM (inactive) | 4.29 µM (inactive) | > 100 µM (inactive) | 17.1 µM (inactive) | > 100 µM (inactive) |
| Cc1ccc(NC(=O)CC(=O)n2nc(C)c(/N=N/c3ccc(S(=O)(=O)CCOS(=O)(=O)O)cc3)c2C)cc1 | > 100 µM (inactive) | > 100 µM (inactive) | > 100 µM (inactive) | > 100 µM (inactive) | > 100 µM (inactive) |  | > 100 µM (inactive) | > 100 µM (inactive) |  | > 100 µM (inactive) | > 100 µM (inactive) | > 100 µM (inactive) | > 100 µM (inactive) | > 10 µM (inactive) | > 100 µM (inactive) | > 100 µM (inactive) | 80 µM (inactive) | > 100 µM (inactive) | > 100 µM (inactive) |  |

— ChEMBL document CHEMBL1201862, “PubChem BioAssay data set” (2004)
